Laboratory results taken from patent publication US8889723B2, “Aminoalkyloxazole and aminoalkylthiazolecarboxylic acid amides as regeneration-promoting substances for sensory organs and post-mitotic tissues” (EMC microcollections GmbH, priority 2010, dated 2014).
“Also recorded” adds a separate entry of the source.

Experiments:
[1] = system: sensory hair cells; experiment: Ototoxic damage of sensory hair cells in organ culture; assay type: cell-based, mouse; details: 1 mM, within 24 hours
Procedure: (§1) After administration of the ototoxic aminoglycoside antibiotic neomycin (1 mM), ⅔of all sensory hair cells suffered cell death within 24 hours. Only in the apical regions of the cochlea, some sensory hair cells survived, the number of which declined further during the course of the experiment as a result of the initial damage. After removal of the neomycin from the medium, the remaining supportive cells could be cultivated further.

[2] = system: differentiated otic epithelium islands from stem cells isolated from the postnatal organ of Corti; experiment: In vitro cell culture assay: proportion of Sox2-positive cells (dedifferentiation); assay type: cell-based, mouse; details: screening assay, FIG. 3; p<0.05, n=10
Procedure: (§2) First, starting with stem cells with otic development potential isolated from the postnatal organ of Corti of the mouse, typical cellular cluster “spheres” were grown in a suspension culture. Under culture conditions optimized compared to known processes (Oshima et al., 2007; Senn et al., 2007) in a DMEM/F12 medium (Dulbecco's Modified Eagle Medium) supplemented with B27 and N2, about 1600 solid spheres per organ of Corti could be generated from the stem cell culture with added FGF (fibroblast growth factor) and IGF (insulin-like growth factor) (FIG. 1H).
(§3) To this end, the cultivated otospheres were differentiated in a second step under adherent culture conditions on an ornithine/fibronectin surface to give monolayer epithelium islands relatively similar to the original sensory epithelium.
For screening, firstly the proportion of Sox2-positive cells in the in vitro culture was determined. Sox2 is a stem cell marker, which is also expressed during ontogenesis of the organ of Corti. It is thought to have an important role in the pluripotency of embryonal stem cells and during induction of pluripotent stem cells from differentiated cells (Takahashi and Yamanaka, 2006). Accordingly, Sox2 is an important marker, in particular in the context of an induced dedifferentiation/reprogramming of cells.

[3] = system: organ of Corti; experiment: In vivo administration after acoustic trauma: regeneration of sensory hair cells (BrdU, myosin VI, DAPI, Sox2 labelling); details: adult guinea pig, impulse noise damage, 200 μM in Alzet pump intracochlear over 6 weeks, FIG. 7
Excerpt: Acute acoustic damage resulting in a loss of sensory hair cells of the organ of Corti, in particular in the region of the outer sensory hair cells, was caused by impulse noise. The compound N-cyclohexyl-2-[1-amino-2-(1H-indol-3-yl)ethyl]α-azole-4-carboxylic acid amide (3) was then continuously administered locally from a miniosmotic pump (Alzet®), subcutaneously implanted, via choleostomy directly into the scala tympani of the cochlea. The dosage of the substance in the pump was correspondingly higher at 200 μM, taking into account an expected dilution effect in the perilymph.
Administration was over a period of 6 weeks, with a subsequent waiting interval of 2 weeks. In parallel, BrdU was administered via the drinking water or the miniosmotic pump to label proliferating cells in the organ of Corti.
After removal of the organ of Corti, immunohistochemical triple labelling with BrdU (cell division), myosin VI (sensory hair cells) and DAPI (staining of the nuclei) FIGS. 7A to 7E and also with Sox2 (pluripotent supportive cells) was carried out.

[4] = system: supportive cells of the organ of Corti; experiment: In vitro organ culture model: BrdU incorporation after neomycin damage; assay type: cell-based, mouse; details: 5 μM, 4 days, after neomycin (1 mM) damage, FIG. 6
Excerpt: To confirm the effects observed in the cell culture assay in the native organ, i.e., in situ in the complex cellular structure of the organ of Corti, use was made of a form of organ culture where the tissue to be cultivated, in the present case the entire inner ear of the mouse, was located in a rotating cylinder filled with culture medium (Hahn et al., 2008). Before the start of the experiment, the cochlea was opened basally and apically in the region of the scala tympani. In this manner, it was possible to minimize the effect of gravity and at the same time to achieve optimum gas and nutrient exchange between the tissue of the organ of Corti and the culture medium. Under these conditions, the explantate could be kept in culture for longer compared to a stationary culture.
as §1
BrdU was then added to the culture medium simultaneously with the compounds (5 μM), and after 4 days the proliferation was quantified by BrdU incorporation.

[5] = system: differentiated otic epithelium islands from stem cells isolated from the postnatal organ of Corti; experiment: In vitro cell culture assay: BrdU-positive cells (proliferation), screening and dose/activity analysis; assay type: cell-based, mouse
Procedure: as §2, §3
If the expression of stem cell markers induced by the compounds is in the end also associated with an increased proliferation of the cells in culture was checked by quantification of the BrdU-positive cells. During substance administration the culture was incubated for 5 h with the thymidine analog BrdU. During the S phase of the cell cycle, cell division results in incorporation of BrdU. If one of the substances stimulates cell division, this can be detected and visualized with an antibody directed against BrdU.
In a dose/activity analysis, the optimum concentration range in which this compound unfolds its maximum regeneration biological effect in the cell culture was determined.
To this end, incorporation of BrdU in the stem cell-based in vitro cell culture assay was determined at 4 concentrations between 0.3 μM and 10 μM in the culture medium. […] From a concentration of 3 μM, the saturation level of about 9% BrdU-positive cells is already reached (FIG. 5).

| Molecule | proportion of all sensory hair cells that suffered cell death [1] | proportion of Sox2-expressing cells compared with the differentiation control [2] | regeneration of sensory hair cells based on cell division (BrdU labelling) [3] | BrdU incorporation into supportive cells (proliferation) [4] | BrdU incorporation into supportive cells (proliferation) ([4]; listed as substance 33) | BrdU incorporation in dose/activity analysis ([5]; 0.3 μM in culture medium, FIG. 5) | BrdU incorporation in dose/activity analysis ([5]; 1 μM in culture medium, FIG. 5) | BrdU incorporation when concentration increased from 0.3 μM to 3 μM ([5]; adhesion culture, p<0.05, n=10, FIG. 5) | BrdU incorporation at concentrations higher than 3 μM ([5]; adhesion culture, up to 10 μM, FIG. 5) | BrdU-positive cells, saturation level in dose/activity analysis ([5]; from 3 μM in culture medium, FIG. 5) | proportion of BrdU-positive cells (induced proliferation) ([5]; screening assay, 5 h incubation with BrdU, FIG. 4) [%] | BrdU incorporation, result in words ([5]; screening assay, 5 h incubation with BrdU, p<0.05, n=10) |
| --- | --- | --- | --- | --- | --- | --- | --- | --- | --- | --- | --- | --- |
| neomycin | ⅔ | – | – | – | – | – | – | – | – | – | – | – |
| N[C@@H](Cc1c[nH]c2ccccc12)c1nc(C(=O)NC2CCCCC2)co1 [Compound 3, N-cyclohexyl-2-[1-amino-2-(1H-indol-3-yl)ethyl]oxazole-4-carboxylic acid amide] | – | more than doubled; also recorded: significant positive results | BrdU-labelled supportive cells and sensory hair cells were preferably demonstrated in the regions of the organ of Corti damaged by acoustic trauma; also recorded: regeneration of sensory hair cells on the basis of cell divisions can be induced | BrdU incorporation could be demonstrated in the furthest laterally orientated Deiter's cells; also recorded: new cells in the sense of a regeneration by cell division of supportive cells have been formed; also recorded: BrdU was incorporated into laterally orientated Deiter's cells | BrdU was incorporated into individual inner phalangeal cells and inner border cells | no significant effect | the mean was already elevated | increased to a significantly higher level | could not be increased any further | about 9% | 4.8 | significant positive results |
